Marks after values point to notes of the source that are not given here.
Key:
A549 cells [1] = details: 28 days
Experimental: The experimental groups included the normal (no tumor cells, vehicle) group, the model (tumor cells, vehicle) group, NY-2-treated, and paclitaxel-treated groups, with six mice in each group. After 7 days for adaptation, 200 µL of A549 cells (2× 10^6 cells/mice) in serum-free medium were injected into the tail vein except for those in the normal group. Drug or vehicle administration via tail vein was started on the next day. The normal group and model group were given the same amount of sterile water containing 1% DMSO and 1% Tween as vehicle control. […] Injections were done every other day. The general conditions of the nude mice, with regard to activity and food ingestion, were observed every day, and their body weight was measured every other day.
KM mice were treated with ZLDI-8 or NY-2 by tail vein injection (6 mg/kg) for 7 days, then the mice were euthanized and liver and kidney tissues were removed and sectioned. For the experiment with BALB/c nude mice, the tail vein injections of NY-2 (6 mg/kg) were continued for 28 days, and the lungs, tumor, heart, liver, and kidney were removed. […] Sections for staining were dewaxed with xylene and then rehydrated, and hematoxylin-eosin staining was performed, after which the sections were again dehydrated in ethanol and cleared with xylene before being mounted on a slide, cover-slipped and examined microscopically. The remainder of the tumors and tissues was frozen in liquid nitrogen for other studies.

[2] = Pharmacokinetics in rats after tail vein injection; type: in vivo, Sprague-Dawley rats; details: for Cmax / half-life / MRT last / AUC(0-inf) / AUC(0-t): male, Sprague-Dawley, plasma; for MRT last: read-out: MRT0-t; for AUC(0-inf) / AUC(0-t): 6 mg/kg
Text: We used the online ADME prediction tool Swiss AMDE (http://www.swissadme.ch/index.php) (SwissADME, 2017) to analyze the physicochemical descriptors and ADME parameters of NY-2 and ZLDI-8, to predict their pharmacokinetic properties, drug-like nature, and medicinal chemistry. […] Male Sprague-Dawley rats weighing 240 ± 20 g were purchased from Liaoning Changsheng Biotechnology Co., Ltd. (Liaoning, China, animal license #SCXK-2015-0001). Rats were used for the tissue distribution and pharmacokinetics experiments because of their larger body fluid volume. The rats were fasted for 12 h before the experiment but allowed to drink water freely. Animals were anesthetized with 4% chloral hydrate (0.5 mL/100 g), the total blood volume was collected from the abdominal aorta and quickly dispensed into heparinized EP tubes prepared in advance. The rats were euthanized after blood collection was completed. Plasma samples were subjected to a protein precipitation method for the quantitative analysis of ZLDI-8 and NY-2 by LC-MS/MS (API 3200MD, AB Sciex, United States). The samples were injected into the ionization source by the auto-sampler. A series of standard solutions of ZLDI-8 were prepared with final concentrations of 20, 50, 100, 250, 500, 1000, and 1500 ng/mL; and NY-2 was prepared with final concentrations of 100, 200, 500, 800, 1200, 1600, and 2000 ng/mL. The linear equation and correlation coefficient (r) of the regression curve were calculated from these concentrations and the corresponding absorption data. The specificity, lower limit of quantification (LLOQ), linear range, precision, accuracy, matrix effects, extraction recovery, stability of analytes during the whole process of storage, as well as treatment in a biological matrix and solution were determined to verify the reliability of the compound concentrations in vivo.
The plasma concentration-time concentration data of ZLDI-8 and NY-2 at different times were fitted by DAS2.0 pharmacokinetics software and the drug-time curve was drawn. The drug-time curves of the two compounds were compared and simulated, and a two-compartment model was selected to calculate the pharmacokinetic parameters using the statistical moment algorithm. The peak value (Cmax), half-life (t1/2), area under the curve (AUC0-t and AUC0-∞), plasma clearance rate (CL), mean retention time (MRT), and other parameters of the test data were expressed as mean ± SD. Statistical analyses were performed using GraphPad Prism 5 (GraphPad Software, San Diego, CA, United States), and all experiments were repeated at least three times. […] The experimental results are presented as mean ± SD or mean ± SEM, and significant differences are defined as p ≤ .05.
Plasma samples obtained after the SD rat tail vein injection of ZLDI-8 and NY-2 were processed and analyzed by HPLC-MS/MS, and the measured peak areas of ZLDI-8 and NY-2 were compared with the internal standard peak areas. The accompanying standard curves were used to calculate the plasma drug concentrations of each rat at different time points from the measured values. The plasma concentration-time data of ZLDI-8 and NY-2 at different times were fitted by DAS2.0 pharmacokinetic software, and the pharmacokinetic outcomes of the two compounds were obtained according to the two-compartment model and the pharmacokinetic parameters are shown in Table 2. The average plasma concentration-time curve after intravenous injection of 6 mg/kg compound ZLDI-8 and NY-2 was obtained by plotting the plasma concentrations against time.

A549 cells [3] = test: LDH activity assay; type: cell-based, human; details: 48 h, increasing concentrations, vs control
Experimental: Cell viability was measured by the MTT assay. HCT116, HL7702, A549, H1993, HCC827, and H460 cells were dispensed into 96-well plates at a density of 1 × 10^5 cells/mL. After 24–48 h incubation, cells were treated with the compounds at different concentrations for the indicated periods. An assay kit (WLA073, Wanlei Co., Liaoning, China), was used according to the manufacturer’s instructions to measure LDH activity, The absorbance at 450 nm was measured with a microplate reader (Elx-800, Bio-Rad, China).

A549 cells [4] = test: Transwell invasion assay; type: cell-based, human; details: 48 h
Experimental: For the transwell invasion assay, Matrigel (50 mg/L) was diluted 1:8 with serum-free medium, and 60 μL of diluted Matrigel was pipetted into each transwell (Corning, NY, United States) and incubated overnight. The upper chamber was seeded with 1× 10^5 cells that had been starved for 24 h in 100 µL of serum-free medium, and 700 µL of medium with 10% FBS was added to the lower compartment. After cultivation for 48 h at 37°C, the cells in the upper chamber were removed with a cotton swab, and the cells on the lower surface of the filter were fixed with methanol for 20 min and stained with 0.1% crystal violet after drying. Excess stain was eluted with 33% acetic acid, and the absorbance was measured at 490 nm.

[5] = nude mice, NY-2 6 mg/kg, paclitaxel 1 mg/kg, n=6, mean ± SEM
[6] = intravenous, rat, tail vein injection 6 mg/kg, mean ± SD, n = 6
[7] = iv, rat, tail vein injection 6 mg/kg, mean ± SD, n = 6
[8] = rat, iv, intravenous injection 6 mg/kg
[9] = rat, iv, tail vein injection 6 mg/kg, mean ± SD, n = 6

## Cc1c(C=C2C(=O)NC(=S)NC2=O)c2ccccc2n1CCOc1ccc(F)cc1 [NY-2]
A549 cells [1]; nude mice with A549 lung metastasis, tail vein every other day, NY-2 6 mg/kg, paclitaxel 1 mg/kg, n=6, mean ± SEM
  Body weight before dissection: 23.48 ± 0.50 g
A549 cells [1]; [5]
  Heart as a proportion of body weight: 0.56 ± 0.03 10^-2
  Kidney as a proportion of body weight: 1.74 ± 0.03 10^-2
  Liver as a proportion of body weight: 5.45 ± 0.05# 10^-2
  Lung as a proportion of body weight: 0.67 ± 0.03 10^-2
  Quality of the heart: 0.13 ± 0.01 g
  Quality of the kidney: 0.41 ± 0.01 g
  Quality of the liver: 1.28 ± 0.04 g
  Quality of the lung: 0.16 ± 0.01 g
A549 cells [1]; nude mice, A549 tail vein, NY-2 6 mg/kg every other day, model group 12.91 ± 11.93%
  average percentage of metastatic lung surface area to the total lung area: 0.25 ± .62%
A549 cells [1]; nude mice, NY-2 6 mg/kg, paclitaxel 1 mg/kg
  infiltration of A549 cells in the lung tissue (H&E): no infiltration of A549 cells in the lung tissue
A549 cells [1]; nude mice, tail vein injection 6 mg/kg
  toxic effects on the heart, liver or kidney (H&E): no obvious toxic effects
[2]; [6]
  Cmax: 2.75 µg/mL
[2]; [7]
  Cmax: 2.75 ± 1.11 µg/mL
  half-life: 129 ± 37.2 min
  MRT last: 64.2 ± 9.6 min
[2]; [8]
  AUC(0-inf): 0.403 µg·h/mL
  AUC(0-t): 0.37 µg·h/mL
[2]; [9]
  AUC(0-inf): 0.402 ± 0.13 µg·h/mL
  AUC(0-t): 0.37 ± 0.111 µg·h/mL
[2]; rat, 6 mg/kg iv
  MRT0-t of NY-2 relative to ZLDI-8 (printed: lower): 3.5 times
  plasma clearance (CL) of NY-2 as share of ZLDI-8's: 22.2%
  t1/2 of NY-2 relative to ZLDI-8 (longer): approximately 3.6 fold
[2]; rats
  CLZ rate of NY-2 as fraction of that of ZLDI-8: 1/5
A549 cells [3]
  LDH activity in cell culture supernatants: increased in a concentration-dependent manner
A549 cells [4]
  invasion of A549 cells: inhibit the invasion and migration of A549 cells in a concentration-dependent manner

## Cc1ccc(OCCn2c(C)c(C=C3C(=O)NC(=S)NC3=O)c3ccccc32)c(C)c1 [ZLDI-8, reference compound]
[2]; [6]
  Cmax: 0.337 µg/mL
[2]; [7]
  Cmax: 0.337 ± 0.0194 µg/mL
  half-life: 35.4 ± 15.6 min
  MRT last: 18.6 ± 1.2 min
[2]; [8]
  AUC(0-inf): 0.0852 µg·h/mL
  AUC(0-t): 0.0588 µg·h/mL
[2]; [9]
  AUC(0-inf): 0.0852 ± 0.0263 µg·h/mL
  AUC(0-t): 0.0588 ± 0.00462 µg·h/mL

— publication PMC9884808, “Pharmacokinetics, tissue distribution, and antitumor activity of a novel compound, NY-2, in non-small cell lung cancer” (Frontiers in Pharmacology, 2023)
